Data taken from article PMC6268181, “Synthesis of Novel IP Agonists via N-Aminoethyl Cyclic Amines Prepared by Decarboxylative Ring-Opening Reactions” (Molecules, 2012).
pKi: −log10 of the molar value. Structures can show the parent of a compound that is named as a salt.

Target: T1, human IP receptor (PGI2 receptor) (Homo sapiens, UniProt P43119)
T1 construct: gene PTGIR
Assay: competitive binding assay with membrane fractions of CHO or COS-7 cells expressing the receptor; also cAMP increase in COS-7 cells expressing human IP

T1 sequence (P43119 1-383): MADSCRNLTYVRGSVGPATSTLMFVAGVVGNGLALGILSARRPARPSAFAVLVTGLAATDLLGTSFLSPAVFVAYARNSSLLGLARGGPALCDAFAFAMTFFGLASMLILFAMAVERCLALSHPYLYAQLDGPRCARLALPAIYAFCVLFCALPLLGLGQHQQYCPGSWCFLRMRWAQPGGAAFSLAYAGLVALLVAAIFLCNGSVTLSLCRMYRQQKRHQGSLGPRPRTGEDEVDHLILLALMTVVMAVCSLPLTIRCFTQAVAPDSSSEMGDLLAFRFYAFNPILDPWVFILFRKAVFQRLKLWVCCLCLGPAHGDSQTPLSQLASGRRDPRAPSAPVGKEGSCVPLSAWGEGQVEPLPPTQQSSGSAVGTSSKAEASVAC

pKi: 6.51
Compound: O=C(O)COC1CCN(CCN(C(=O)c2ccc3c(c2)OCO3)c2ccc(Cl)cc2)CC1 [compound 2, 2-((1-(2-(N-(4-Chlorophenyl)benzo[d][1,3]dioxole-5-carboxamido)ethyl)piperidin-4-yl)oxy)acetic acid phosphoric acid salt]
